Assay results: paper PMC2959027, “Expression and function of human hemokinin-1 in human and guinea pig airways” (Respiratory Research, 2010)
No end group written: not given here.

Tests used:
Assay type in all cases: cell-based
guinea pig main bronchi [1] = experiment: Contraction of guinea pig main bronchi by tachykinin peptides (organ bath); conditions: cumulative additions; phosphoramidon 10^-6 M; n = 6-7
Text: (§1) Human bronchial tissues were removed from 47 patients undergoing surgical resection at Foch Hospital (Suresnes, France) or Val d'or Clinic (Saint Cloud, France) for lung cancer (31 men and 16 women; age = 64 ± 9 years). Just after resection, segments of human bronchi with an inner diameter (ID) of 1 to 3 mm were taken as far as possible from the malignant lesion. Male Hartley guinea pigs (Charles River, L'Arbresle, France) weighing 300 to 350 g were sacrificed by cervical dislocation, and tracheas and proximal bronchi were removed. […]
(§2) Human bronchial rings and guinea pig tracheal and bronchial rings were suspended on hooks in 5 mL organ bath containing a modified Krebs-Henseleit solution (NaCl 119, KCl 4.7, CaCl2 2.5, KH2PO4 1.2, NaHCO3 25 and glucose 11.7 mM), maintained at 37°C and oxygenated with 95% O2 and 5% CO2. […] Changes of tension were measured isometrically with Gould strain gauges (UF1; Piodem, Canterburry, Kent, UK); and were recorded and post-processed with IOX and Datanalyst softwares (Emka Technologies France, Paris). […] Only one concentration-response curve to tachykinins was recorded in each strip, and each experiment was performed in duplicate. Maximal response was determined by a final addition of acetylcholine hydrochloride (ACh, 3 mM). Contractile responses to tachykinins and related compounds were expressed as percentage of that induced by ACh. […]

human bronchi [2] = experiment: Contraction of human isolated bronchi by tachykinin peptides (organ bath, isometric tension); conditions: phosphoramidon 10^-6 M
Text: (§3) Human bronchial tissues were removed from 47 patients undergoing surgical resection at Foch Hospital (Suresnes, France) or Val d'or Clinic (Saint Cloud, France) for lung cancer (31 men and 16 women; age = 64 ± 9 years). Just after resection, segments of human bronchi with an inner diameter (ID) of 1 to 3 mm were taken as far as possible from the malignant lesion. Male Hartley guinea pigs (Charles River, L'Arbresle, France) weighing 300 to 350 g were sacrificed by cervical dislocation, and tracheas and proximal bronchi were removed. After the removal of adhering lung parenchyma and connective tissues, rings from human bronchi (5-7 mm long, […]) and guinea pig trachea (3 mm long, 3 mm ID) or proximal airways (3 mm long, 1 mm ID) were prepared. 8 to 24 segments of human bronchi were obtained from each patient, whereas 8 trachea segments and 2 to 3 main bronchi segments were obtained from each guinea pig. For RT-PCR analysis, human bronchi were isolated within 1 hour after resection, immediately disrupted and homogenized in TRIzol reagent (Invitrogen) with a Potter Elvehjem homogenizer, and homogenates were kept frozen at -80°C until mRNA extraction. Experiments with human lung tissues were approved by the Regional Ethics Committee for Biomedical Research and animals were used as recommended by animal care guidelines.
(§4) Human bronchial rings and guinea pig tracheal and bronchial rings were suspended on hooks in 5 mL organ bath containing a modified Krebs-Henseleit solution (NaCl 119, KCl 4.7, CaCl2 2.5, KH2PO4 1.2, NaHCO3 25 and glucose 11.7 mM), maintained at 37°C and oxygenated with 95% O2 and 5% CO2. An initial tension of 2 g was applied to tissues, according to previously described protocols. Changes of tension were measured isometrically with Gould strain gauges (UF1; Piodem, Canterburry, Kent, UK); and were recorded and post-processed with IOX and Datanalyst softwares (Emka Technologies France, Paris). During the initial stabilization period (30 min), tissues were washed every 10 minutes with Krebs-Henseleit solution. Phosphoramidon was used to inhibit enzymatic degradation of tachykinins by NEP [21, 40]. Phosphoramidon (10^-6 M) was added in organ bath with or without NK1-, NK2- or NK3-receptor antagonists (SR 140333, SR 48968 and SR 142801, 10^-7 M) after the first stabilization period. Antagonist concentrations were chosen based on their reported affinities for human tachykinin receptors and on their ability to antagonize HK-1-induced responses at similar concentrations in other models. Tissues were then equilibrated 1 hour and concentration-response curves to tachykinins and related peptides were established by applying cumulative concentrations of peptides at 5 to 10 min intervals in semi-logarithmic increments, or by applying a single concentration of peptide. Only one concentration-response curve to tachykinins was recorded in each strip, and each experiment was performed in duplicate. Maximal response was determined by a final addition of acetylcholine hydrochloride (ACh, 3 mM). Contractile responses to tachykinins and related compounds were expressed as percentage of that induced by ACh. The pD2 (defined as the negative log of the molar drug concentration that caused 50% of maximal effect) were calculated from the log concentration-effect curves. When the pD2 value was not assessable (maximal effect (Emax) not reached), it was replaced by the -log EC20 (defined as the negative log of the drug concentration that caused 20% of maximal contraction with ACh). All values in the text and in the figures are expressed as arithmetic mean ± standard error of the mean (s.e.m) of duplicate experiments on tissues from the given (n) number of individuals or animals.

guinea-pig trachea [3] = experiment: Contraction of guinea pig trachea by tachykinin peptides (organ bath); conditions: cumulative additions, phosphoramidon 10^-6 M; for contractile effect on guinea-pig trachea: EKA/B 10^-8 M-10^-6 M; for Emax (% of Ach 3 mM) / pD2: guinea-pig trachea, mean ± s.e.m. for n determinations (n = 6-12)
Text: as §3, §4

human bronchi [4] = experiment: Cross-desensitization of NK1 receptors after consecutive applications of hHK-1 and [Sar^9,Met(O2)^11] SP on human bronchi; conditions: phosphoramidon 10^-6 M, n = 5
Procedure: as §4

human bronchi [5] = experiment: Effect of NK1, NK2 or NK3 receptor antagonists on peptide-induced contraction of human isolated bronchi; conditions: phosphoramidon 10^-6 M; for response to a single addition of 10^-6 M hHK-1 in the presence of antagonist / effect of antagonist on contraction by cumulative additions of hHK-1 / effect of antagonist on the response to [Sar^9,Met(O2)^11] SP (10^-6 M), single addition: antagonist 10^-7 M; for response to a single addition of 10^-6 M hHK-1 in the presence of antagonist: % of ACh 3 mM, control 42 ± 4%, not significant, mean ± s.e.m., n = 6-12; for effect of antagonist on contraction by cumulative additions of hHK-1: n = 5-12; for effect of antagonist on the response to [Sar^9,Met(O2)^11] SP (10^-6 M), single addition: n = 6; for effect of the association of SR 140333 and SR 48968 on contraction to a single addition of 10^-6 M hHK-1: both antagonists 10^-7 M together
Text: as §3, §4

guinea pig main bronchi [6] = experiment: Effect of NK1 or NK2 receptor antagonists on hHK-1-induced contraction of guinea pig main bronchi; conditions: antagonist 10^-7 M; cumulative additions of hHK-1; phosphoramidon 10^-6 M; n = 5-7
Text: as §1, §2

guinea-pig trachea [7] = experiment: Effect of NK1 or NK2 receptor antagonists on hHK-1-induced contraction of guinea pig trachea; conditions: for effect of antagonist on contractions induced by hHK-1, guinea-pig trachea: antagonist 10^-7 M, cumulative additions of hHK-1, phosphoramidon 10^-6 M
Text: as §1, with “removed. After the removal of adhering lung parenchyma and connective tissues, rings from human bronchi (5-7 mm long, […]) and guinea pig trachea (3 mm long, 3 mm ID) or proximal airways (3 mm long, 1 mm ID) were prepared. 8 to 24 segments of human bronchi were obtained from each patient, whereas 8 trachea segments and 2 to 3 main bronchi segments were obtained from each guinea pig.” for “removed.”
as §2, with “ACh. The pD2 (defined as the negative log of the molar drug concentration that caused 50% of maximal effect) were calculated from the log concentration-effect curves.” for “ACh.”

[8] = 10^-7 M, % of ACh 3 mM, mean ± s.e.m.

Compound: endokinin A/B [EKA/B]
- potency on guinea-pig isolated bronchi compared with SP and [Sar^9,Met(O2)^11] SP (guinea pig main bronchi [1]): less potent
- -log EC20 (human bronchi [2]; negative log of concentration causing 20% of maximal contraction with ACh, cumulative additions, mean ± s.e.m., n = 3): 7.2 ± 0.3

Compound: endokinin D [EKD]
- contractile effect on guinea-pig trachea (guinea-pig trachea [3]): without effect
- contractile activity on human isolated bronchi (human bronchi [2]; cumulative additions, n = 3): devoid of any contractile activity

Compound: [Sar^9,Met(O2)^11] substance P [[Sar^9,Met(O2)^11] SP]
- Emax (% of Ach 3 mM) (guinea-pig trachea [3]): 76 ± 2 % of Ach 3 mM
- pD2 (guinea-pig trachea [3]): 7.5 ± 0.1
- Emax, cumulative additions in the presence of SR 48968 (human bronchi [2]; NK2 antagonist SR 48968 10^-7 M, inverted U-shaped curve, % of ACh 3 mM, mean ± s.e.m.): 13 ± 3%
- pD2, single additions in the presence of SR 48968 (human bronchi [2]; NK2 antagonist SR 48968 10^-7 M, non cumulative additions, mean ± s.e.m., hHK-1 n = 5-7, [Sar^9,Met(O2)^11] SP n = 10): 8.0 ± 0.4
- maximal contraction, single additions in the presence of SR 48968 (human bronchi [2]; NK2 antagonist SR 48968 10^-7 M, non cumulative additions, sigmoid curve, % of ACh 3 mM, mean ± s.e.m., hHK-1 n = 5-7, [Sar^9,Met(O2)^11] SP n = 10): 26 ± 7%
- contraction, first addition of [Sar^9,Met(O2)^11] SP (followed by a second addition of the same peptide) (human bronchi [4]; [8]): 33 ± 7%
- contraction, initial addition of [Sar^9,Met(O2)^11] SP (followed by hHK-1) (human bronchi [4]; [8]): 32 ± 7%
- contraction, second addition of [Sar^9,Met(O2)^11] SP after a first addition of [Sar^9,Met(O2)^11] SP (human bronchi [4]; 10^-7 M, % of ACh 3 mM, mean ± s.e.m., p < 0.01 vs first): 4 ± 1%
- response to [Sar^9,Met(O2)^11] SP after a first addition of hHK-1 (human bronchi [4]; [Sar^9,Met(O2)^11] SP 10^-7 M after hHK-1 3.10^-7 M): abolished

Compound: endokinin C (KKAYQLEHTFQGLL; ends and bridges not checked; UniProt Q86UU9 82-95, looked up) [EKC, peptide derived from TAC4, custom synthesized]
- contractile effect on guinea-pig trachea (guinea-pig trachea [3]): without effect
- contractile activity on human isolated bronchi (human bronchi [2]; cumulative additions, n = 3): devoid of any contractile activity

Compound: CC(=O)NC1(c2ccccc2)CCN(CC[C@H](CN(C)C(=O)c2ccccc2)c2ccc(Cl)c(Cl)c2)CC1 [SR 48968, (S)-N-methyl-N-[4-acetylamino-4-phenylpiperidino-2-(3,4-dichlorophenyl)butyl]benzamide]
- response to a single addition of 10^-6 M hHK-1 in the presence of antagonist (human bronchi [5]): 31 ± 4%
- effect of antagonist on contraction by cumulative additions of hHK-1 (human bronchi [5]): completely abolished
- effect of antagonist on the response to [Sar^9,Met(O2)^11] SP (10^-6 M), single addition (human bronchi [5]): unmodified
- effect of the association of SR 140333 and SR 48968 on contraction to a single addition of 10^-6 M hHK-1 (human bronchi [5]): abolished the smooth muscle contraction
- effect of antagonist on contractions induced by hHK-1, guinea pig main bronchi (guinea pig main bronchi [6]): altered to a lesser extent
- effect of antagonist on contractions induced by hHK-1, guinea-pig trachea (guinea-pig trachea [7]): altered to a lesser extent

Compound: CC(C)Oc1cccc(CC(=O)N2CCC[C@](CC[N+]34CCC(c5ccccc5)(CC3)CC4)(c3ccc(Cl)c(Cl)c3)C2)c1.[Cl-] [SR 140333, (S)1-(2-[3-(3,4-dichlorophenyl)-1-(3-isopropoxyphenylacetyl)piperidin-3-yl]ethyl)-4-phenyl-1-azoniabicyclo [2.2.2]octane chloride]
- response to a single addition of 10^-6 M hHK-1 in the presence of antagonist (human bronchi [5]): 31 ± 5%
- effect of antagonist on contraction by cumulative additions of hHK-1 (human bronchi [5]): small but not statistically significant reduction
- effect of antagonist on the response to [Sar^9,Met(O2)^11] SP (10^-6 M), single addition (human bronchi [5]): specifically abolished
- effect of the association of SR 140333 and SR 48968 on contraction to a single addition of 10^-6 M hHK-1 (human bronchi [5]): abolished the smooth muscle contraction
- effect of antagonist on contractions induced by hHK-1, guinea pig main bronchi (guinea pig main bronchi [6]): abolished
- effect on maximal contractions induced by hHK-1, guinea-pig trachea (guinea-pig trachea [7]; SR 140333 10^-9 to 10^-7 M, n = 4-11, suggesting non competitive antagonism): reduced maximal contractions
- effect of antagonist on contractions induced by hHK-1, guinea-pig trachea (guinea-pig trachea [7]): abolished

Compound: CC(=O)N(C)C1(c2ccccc2)CCN(CCCC2(c3ccc(Cl)c(Cl)c3)CCCN(C(=O)c3ccccc3)C2)CC1 (stereo in doubt) [SR 142801, (S)-(N)-(1-(3-(1-benzoyl-3-(3,4-dichlorophenyl)piperidin-3-yl)propyl)-4-phenylpiperidin-4-yl)-N-methylacetamide]
- effect of antagonist on contraction by cumulative additions of hHK-1 (human bronchi [5]): did not alter

Compound: [β-Ala^8]-NKA (4-10)
- Emax (% of Ach 3 mM) (guinea-pig trachea [3]): 80 ± 5 % of Ach 3 mM
- pD2 (guinea-pig trachea [3]): 8.3 ± 0.6
